In patent publication US10857105B2, “Compounds and compositions for intracellular delivery of therapeutic agents” (ModernaTX, Inc., priority 2017, dated 2020):

Key:
[1] = Encapsulation efficiency of RNA in nanoparticle compositions (RIBOGREEN assay); format: physicochemical; details: Table 1A; lipid:DSPC:cholesterol:PEG-DMG 50:10:38.5:1.5 mol %
Outline: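 Lipid nanoparticles (ionisable lipid:DSPC:cholesterol:PEG-DMG 50:10:38.5:1.5 mol %) carrying N1-methylpseudouridine luciferase or hEPO mRNA diluted to about 5 μg/mL in TE, pH 7.5, with or without 2% Triton X-100, 15 min at 37° C. RiboGreen fluorescence (ex ~480, em ~520 nm) blank-subtracted; free RNA = intact/disrupted signal.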

modified luciferase = experiment: Luciferase expression in liver, lung, spleen and femur 6 hours after intravenous administration to mice; format: in vivo; details: 6 hours after intravenous 0.5 mpk, mice
Outline: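 Nanoparticle formulations of the modified luciferase were given intravenously to mice (n=3) at 0.5 mpk. Bioluminescence was measured after 6 hours as total light flux. Standard MC3 formulation and PBS run as controls.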

IL-6, IP-10 = experiment: Cytokine induction (IL-6, IP-10) in mice 6 hours after intravenous administration; format: in vivo; design: unit not given here; details: intravenous 0.5 mpk
Outline: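 Mice dosed intravenously with nanoparticle compositions at 0.5 mpk; serum cytokine concentrations (IL-6, IP-10) measured at 6 hours. MC3 formulation and PBS controls run alongside.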

[2] = Chemical stability of lipids in ethanol at room temperature and 37° C. (lipid purity); format: physicochemical
Procedure: Ester linkages were previously reported to trigger metabolism by esterases in vivo. (See Fukami, T. et al. Drug Metab. Pharmacokinet. 2012, 27, 466-477, the content of which is incorporated by reference herein in its entirety). […] (See Maier M. A., Mol. Ther. 2013, 21, 1570-1578, the content of which is incorporated herein in its entirety) First, the chemical stability of the lipids was evaluated by measuring ethanol stability at room temperature and 37° C. (Table 39). […] LNPs formed with compound 138 were larger, with a surface pKa>7. […] Removal of one ester function (compound 136) afforded LNPs with improved physiochemical characteristics and lower LNP surface pKa.

CD-1 mice = experiment: Luciferase expression after intravenous delivery of luciferase mRNA LNPs (bioluminescent imaging); format: in vivo; details: intravenous 0.5 mg/kg mRNA dose
Procedure: Whole body and ex vivo organ bioluminescent imaging of mice: CD-1 mice were injected 15 minutes prior to the imaging timepoint intraperitoneally (IP) with 200 μL Xenolight D-luciferin K+ salt, diluted in PBS just prior to use to a concentration of 15 mg/mL. Ex vivo imaging of organs was completed, within 25 minutes of luciferin administration. All images were quantified by region of interest for total flux.
[…] […] (See Semple, S.C. et al., Nature Biotech. 2010. 28, 172-176, Jayaraman, M., et al. Angew. Chem. Int. Ed. 2012, 51, 8529-8533, the entire contents of each of which are incorporated by reference herein in their entireties). To evaluate the efficiency of the new amino lipids, LNPs using the novel compounds were tested in vivo in mice using luciferase mRNA as a reporter. An MC3 LNP was included as a control in each experiment, enabling the comparison of LNPs from experiment to experiment. Measured luciferase activity also enabled the determination of protein bio-distribution.

[3] = Particle size and polydispersity index of nanoparticle compositions (Zetasizer Nano ZS); format: physicochemical
Outline: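 Size and PDI measured by Zetasizer Nano ZS in 1×PBS (zeta potential in 15 mM PBS). Lipid nanoparticles contained test ionizable lipid:DSPC:cholesterol:PEG-DMG at 50:10:38.5:1.5 mol % with N1-methyl-pseudouridine mRNA encoding luciferase or hEPO.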

hEPO mRNA = experiment: hEPO expression after intravenous administration to rats; format: in vivo, rat; details: rats, 6 hours; for Lipid/MC3 hEPO conc. ratio, 0.2 mpk: intravenous 0.2 mpk; for Lipid/MC3 hEPO conc. ratio, 2 mpk: intravenous 2 mpk
Procedure: The expression of hEPO and cytokine induction in rats intravenously administered a nanoparticle composition at a dose of 2.0 mpk was measured at 6 h.
(§1) The expression of hEPO in rats intravenously administered a nanoparticle composition at a dose of 0.2 mpk or 2.0 mpk was measured at 6 hours. Table 16 summarize the ratio of hEPO expression levels using various nanoparticle compositions as compared to the hEPO expression level using MC3 formulation and the lipid levels in the liver measured 48 hours after administration, as described above. Tables 17 and 18 summarize the lipid levels in the liver and spleen measured 48 hours after administration of Compounds 28, 33, 53, and 54. Liver and spleen levels represent the average values calculated for 3 rats in each group. As is shown in Tables 17 and 18, less than 10% of Compounds 28, 33, 53, and 54 remained in the liver after 48 hours, while greater than 60% of MC3 remained.
(§2) Table 19A summarizes the hEPO expression, IP-10 induction, liver and spleen levels, and alanine aminotransferase (ALT) and aspartate aminotransferase (AST) measured upon intravenous administration of formulations including Compounds 48, 49, and 50 to rat at 0.2 and 2 mpk and hEPO mRNA. hEPO concentrations were measured 6 hours after administration, while cytokine induction and liver and spleen levels were measured 48 hours after administration. hEPO and IP-10 concentrations are presented in pg/ml, while liver levels are provided in ng/g. ALT and AST levels are presented in international units.
The expression of hEPO induced by intravenous administration to rats of nanoparticle compositions at various doses was measured at 2, 4, 6, 8, 24, and 48 hour time points. FIGS. 3-6 respectively summarize the hEPO expression measured upon intravenous administration of formulations including Compounds 26, 18, 25, and MC3 to rat at various doses. The lipid levels of Compound 26 in the liver after 48 hours were about 19%.
(§3) The expression of hEPO and lipid levels in the liver and spleen in rats intravenously administered a nanoparticle composition at a dose of 0.2 mpk was measured at various time points. Compounds 18 and 25 were selected for comparison with MC3. Lipids were formulated according to the standard MC3 formulation described above. Rats were administered intravenously a single 0.2 mpk dose and expression monitored at 0.25, 0.5, 1, 2, 4, 8, 24, and 48 hours after administration.

[4] = Residual lipid levels in rat liver and spleen (UPLC-MS); format: in vivo; details: rats, 2 mpk, 48 h; assuming 300 g rat and 15 g liver
Procedure: At 48 h liver tissue was harvested for lipid quantification. To pre-weighed tissues, Milli-Q water was added (900 μL water per 100 mg tissue). Tissues were homogenized using an Omni probe homogenizer until uniform. 50 μL of samples and matrix calibration standards were aliquoted into a 96-well plate. 50 μL of blank matrix for matrix blanks and control blanks were aliquoted. 400 μL IS spiking solution were manually added to all samples except matrix blanks. 400 μL of 50:50 ACN:IPA were manually added to matrix-blanks. The plate was covered and the samples vortexed and centrifuged for 5 minutes at >3000 rpm. 200 μL of the samples were transferred into a clean 96-well plate for analysis. Samples were analyzed on a Waters Acquity UPLC using a Higgins Analytical Clipeus C8 column ([…], 30×2.1 mm) and a gradient of either 70-95% or 60-95% (Mobile Phase A: 5 mM ammonium formate in 50:50:1 H2O:MeOH:formic acid; Mobile Phase B: 5 mM ammonium formate in 100:1 MeOH:formic acid) over 1.3 min at […] (column temperature 55° C.). Detection was based on electrospray ionization (ESI) in positive mode using a Sciex API5500 Mass Spectrometer.
as §1, §2, §3

[5] = Table 1A, lipid:DSPC:cholesterol:PEG-DMG 50:10:38.5:1.5 mol %

EE [1] [%]	Cytokine induction, IL-6 (IL-6, IP-10)	Cytokine induction, IP-10 (IL-6, IP-10)	Lipid Purity, t = 96 h, 25° C. [2] [%]	Lipid Purity, t = 96 h, 37° C. [2] [%]	Lipid Purity, t = 0 [2] [%]	Size [3, 5] [nm]	% Lipid Remaining in liver, 48 h, 2 mpk [4] [%]	Size ([3]; Table 1D, compositions for subcutaneous administration, # formulated with hEPO mRNA) [nm]	SMILES	Total Flux, Femur (modified luciferase)	Total Flux, Liver (modified luciferase)	Total Flux, Lung (modified luciferase)	Total Flux, Spleen (modified luciferase)	localization of protein expression (whole body imaging) (CD-1 mice)	luciferase activity/expression compared to MC3 LNP control (words) (CD-1 mice)	Lipid/MC3 hEPO conc. ratio, 0.2 mpk (hEPO mRNA)	Lipid/MC3 hEPO conc. ratio, 2 mpk (hEPO mRNA)	luciferase activity/expression compared to MC3 LNP control (words) (CD-1 mice; 0.5 mg/kg)	luciferase activity/expression compared to MC3 LNP control (words) (CD-1 mice; listed as compound 14, 0.5 mg/kg)
96.99	69.54	1362.81	97.67	98.10	97.017				CCCCCCCCC(CCCCCCCC)OC(=O)CCCCCCCN(CCO)CCCCCCCC(=O)OC(CCCCCCCC)CCCCCCCC [compound 29, Di(heptadecan-9-yl) 8,8′-((2-hydroxyethyl)azanediyl)dioctanoate]	9.56E+05	5.20E+08	9.83E+05	5.99E+06		lower luciferase activity				
						68.4	15.9		CCCCCCCCC(CCC)OC(=O)CCCCCCCN(CCO)CCCCCCCC(=O)OC(CCCCCCCC)CCCCCCCC (stereo not drawn) [Compound 50, dodecan-4-yl 8-((8-(heptadecan-9-yloxy)-8-oxooctyl)(2-hydroxyethyl)amino)octanoate]		6.30E+09	2.81E+07	1.14E+08			3.41	3.03		
						88	12.6	74.0	CCCCCCCCC(CC)OC(=O)CCCCCCCN(CCO)CCCCCCCC(=O)OC(CCCCCCCC)CCCCCCCC (stereo not drawn) [Compound 49, heptadecan-9-yl 8-((2-hydroxyethyl)(8-oxo-8-(undecan-3-yloxy)octyl)amino)octanoate]		5.68E+09	2.52E+07	1.87E+08			4.13	3.28		

The next lines start with the compound.

SMILES	EE [1] [%]	Cytokine induction, IL-6 (IL-6, IP-10)	Cytokine induction, IP-10 (IL-6, IP-10)	Lipid Purity, t = 96 h, 25° C. [2] [%]	Lipid Purity, t = 96 h, 37° C. [2] [%]	Lipid Purity, t = 0 [2] [%]	Size [3, 5] [nm]	% Lipid Remaining in liver, 48 h, 2 mpk [4] [%]	Size ([3]; Table 1D, compositions for subcutaneous administration, # formulated with hEPO mRNA) [nm]	Total Flux, Femur (modified luciferase)	Total Flux, Liver (modified luciferase)	Total Flux, Lung (modified luciferase)	Total Flux, Spleen (modified luciferase)	localization of protein expression (whole body imaging) (CD-1 mice)	luciferase activity/expression compared to MC3 LNP control (words) (CD-1 mice)	Lipid/MC3 hEPO conc. ratio, 0.2 mpk (hEPO mRNA)	Lipid/MC3 hEPO conc. ratio, 2 mpk (hEPO mRNA)	luciferase activity/expression compared to MC3 LNP control (words) (CD-1 mice; 0.5 mg/kg)	luciferase activity/expression compared to MC3 LNP control (words) (CD-1 mice; listed as compound 14, 0.5 mg/kg)
CCCCC/C=C\C/C=C\CCCCCCCCN(CCO)CCCCCCCC(=O)OCCCCCCCCC [Compound 136, Nonyl 8-((2-hydroxyethyl)((9Z,12Z)-octadeca-9,12-dien-1-yl)amino)octanoate]	90.9	28.69	887.91	93.17	93.86	91.81				6.60E+05	1.34E+08	8.91E+05	2.77E+07						
CCCCCCCCCOC(=O)CCCCCCCN(CCCCCCCC(=O)OC(CCCCCCCC)CCCCCCCC)CCCNC(=O)C(C)(C)COC [compound 281, Heptadecan-9-yl 8-((3-(3-methoxy-2,2-dimethylpropanamido)propyl)(8-(nonyloxy)-8-oxooctyl)amino)octanoate]				95.15	96.47	95.17								majority of protein expression was localized in the liver	two-fold lower				
CCCCCCCCCOC(=O)CCCCCCCN(CCO)CCCCCCCC(=O)OCCCCCCCCC [compound 138, Dinonyl 8,8′-((2-hydroxyethyl)azanediyl)dioctanoate]	91.8	23.38	172.56	98.64	97.82	97.59				1.58E+05	3.66E+06	9.47E+04	4.04E+06						
CCCCCCCCCOC(=O)CCCCCCCN(CCCCCCCC(=O)OC(CCCCCCCC)CCCCCCCC)CCN(C)C [Compound 14, Heptadecan-9-yl 8-((2-(dimethylamino)ethyl)(8-(nonyloxy)-8-oxooctyl)amino)octanoate]	95.24	75.29	621.49	92.07	91.90	92.08				4.91E+06	1.91E+08	4.74E+06	1.92E+08					complete loss of delivery efficiency	low levels of Luciferase expression
